In the supplement of paper PMC11451515:

Tested on: NOMO1
Assay: cell viability relative to DMSO control; higher = less cytotoxic
Conditions: 48 h
In short: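 Three leukemia lines were tested: NOMO1 and SEM at 500 cells/well and P12-Ichikawa at 1000 cells/well. Each was adapted for at least four passages in each medium and seeded in 5 μl in 1536-well plates, and library compounds in DMSO were pin-dosed from 47 μM to 0.79 nM in 11 threefold steps. After 48 h at 37°C, CellTiter-Glo One luminescence was read. Viability is a percentage relative to DMSO wells on each plate, with cell-free wells as background.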

[1] = HPLM + 10% dialyzed FBS, 0.000781 µM
[2] = HPLM + 10% dialyzed FBS, 0.00234 µM
[3] = HPLM + 10% dialyzed FBS, 0.00702 µM
[4] = HPLM + 10% dialyzed FBS, 0.0211 µM
[5] = HPLM + 10% dialyzed FBS, 0.0632 µM
[6] = HPLM + 10% dialyzed FBS, 0.19 µM
[7] = HPLM + 10% dialyzed FBS, 0.569 µM
[8] = HPLM + 10% dialyzed FBS, 1.71 µM
[9] = HPLM + 10% dialyzed FBS, 5.12 µM
[10] = HPLM + 10% dialyzed FBS, 15.4 µM
[11] = HPLM + 10% dialyzed FBS, 46.1 µM
[12] = RPMI 5 mM glucose + 10% FBS, 0.000781 µM
[13] = RPMI 5 mM glucose + 10% FBS, 0.00234 µM
[14] = RPMI 5 mM glucose + 10% FBS, 0.00702 µM
[15] = RPMI 5 mM glucose + 10% FBS, 0.0211 µM
[16] = RPMI 5 mM glucose + 10% FBS, 0.0632 µM
[17] = RPMI 5 mM glucose + 10% FBS, 0.19 µM
[18] = RPMI 5 mM glucose + 10% FBS, 0.569 µM
[19] = RPMI 5 mM glucose + 10% FBS, 1.71 µM
[20] = RPMI 5 mM glucose + 10% FBS, 5.12 µM
[21] = RPMI 5 mM glucose + 10% FBS, 15.4 µM
[22] = RPMI 5 mM glucose + 10% FBS, 46.1 µM
[23] = RPMI 5 mM glucose + 10% dialyzed FBS, 0.000781 µM
[24] = RPMI 5 mM glucose + 10% dialyzed FBS, 0.00234 µM
[25] = RPMI 5 mM glucose + 10% dialyzed FBS, 0.00702 µM
[26] = RPMI 5 mM glucose + 10% dialyzed FBS, 0.0211 µM
[27] = RPMI 5 mM glucose + 10% dialyzed FBS, 0.0632 µM
[28] = RPMI 5 mM glucose + 10% dialyzed FBS, 0.19 µM
[29] = RPMI 5 mM glucose + 10% dialyzed FBS, 0.569 µM
[30] = RPMI 5 mM glucose + 10% dialyzed FBS, 1.71 µM
[31] = RPMI 5 mM glucose + 10% dialyzed FBS, 5.12 µM
[32] = RPMI 5 mM glucose + 10% dialyzed FBS, 15.4 µM
[33] = RPMI 5 mM glucose + 10% dialyzed FBS, 46.1 µM

| SMILES | cell viability [1] [%] | cell viability [2] [%] | cell viability [3] [%] | cell viability [4] [%] | cell viability [5] [%] | cell viability [6] [%] | cell viability [7] [%] | cell viability [8] [%] | cell viability [9] [%] | cell viability [10] [%] | cell viability [11] [%] | cell viability [12] [%] | cell viability [13] [%] | cell viability [14] [%] | cell viability [15] [%] | cell viability [16] [%] | cell viability [17] [%] | cell viability [18] [%] | cell viability [19] [%] | cell viability [20] [%] | cell viability [21] [%] | cell viability [22] [%] | cell viability [23] [%] | cell viability [24] [%] | cell viability [25] [%] | cell viability [26] [%] | cell viability [27] [%] | cell viability [28] [%] | cell viability [29] [%] | cell viability [30] [%] | cell viability [31] [%] | cell viability [32] [%] | cell viability [33] [%] |
| --- | --- | --- | --- | --- | --- | --- | --- | --- | --- | --- | --- | --- | --- | --- | --- | --- | --- | --- | --- | --- | --- | --- | --- | --- | --- | --- | --- | --- | --- | --- | --- | --- | --- |
| O=C(NC1CCOCC1)c1ccc(-c2cc(-c3c[nH]nc3-c3ccccn3)ccn2)cc1 | 125 | 99.7 | 110 | 93.6 | 120 | 107 | 114 | 101 | 87.5 | 110 | 108 | 99.4 | 97.6 | 102 | 98.8 | 99.7 | 104 | 93.2 | 87.3 | 93.1 | 104 | 93.8 | 106 | 94.9 | 99.6 | 91.1 | 104 | 92.4 | 95.3 | 104 | 96.7 | 97.8 | 93 |
| CCC1=C[C@@H]2CN(C1)Cc1c([nH]c3ccccc13)[C@@](C(=O)OC)(c1cc3c(cc1OC)N(C)[C@H]1[C@@](O)(C(=O)OC)[C@H](OC(C)=O)[C@]4(CC)C=CCN5CC[C@]31[C@@H]54)C2 | 127 | 119 | 108 | 96.9 | 49.3 | 34.5 | 38 | 34.5 | 38.4 | 47 | 27.4 | 106 | 98.3 | 98.9 | 99.3 | 70.5 | 20.6 | 21.1 | 23.4 | 22.4 | 29.2 | 18.9 | 120 | 114 | 114 | 107 | 86.5 | 18.8 | 25.7 | 26.5 | 29 | 27.8 | 20.5 |
| CNC(=O)c1cccc(-c2ccc3c(N4CCOC[C@@H]4C)nc(N4CCOC[C@@H]4C)nc3n2)c1 | 99.9 | 99.8 | 83.6 | 92.1 | 73.8 | 61.4 | 64.3 | 67.3 | 60.1 | 49.3 | 53.7 | 98.3 | 91.1 | 91.2 | 96.6 | 79.6 | 82.9 | 87.2 | 68.9 | 57.9 | 60.2 | 45.2 | 83.7 | 85.7 | 90.5 | 79.5 | 75.6 | 62.8 | 62.5 | 54.8 | 50.4 | 49.4 | 50.3 |
| CCOC(=O)C/1=C(C)/NC(=S)NC1C2=CC=CC(=C2)O (stereo unspecified) |  |  |  |  |  |  |  |  |  |  |  | 103 | 124 | 117 | 128 | 123 | 47.3 | 22.7 | 24.3 | 19.3 | 22.3 | 17.1 | 117 | 120 | 133 | 126 | 132 | 99.5 | 33.2 | 32.1 | 22.9 | 26.4 | 23.3 |
| Cc1ccc(C(C)(O)c2nc3ccccc3s2)c(C)c1 (stereo unspecified) | 88.5 | 124 | 115 | 109 | 130 | 127 | 113 | 132 | 98.3 | 55.7 | 28.8 | 95.7 | 101 | 105 | 113 | 105 | 113 | 110 | 114 | 116 | 52.6 | 21.1 | 107 | 107 | 104 | 113 | 113 | 114 | 108 | 117 | 104 | 100 | 39.2 |
| ClC1=CC=C(CCCOC/2=N/NC(=O)C(=C2NCC3=CN=CC=C3)/Br)C=C1 | 124 | 117 | 150 | 115 | 115 | 118 | 97.9 | 75.4 | 38.8 | 15.9 | 7.76 |  |  |  |  |  |  |  |  |  |  |  | 121 | 120 | 127 | 112 | 111 | 109 | 106 | 106 | 66.2 | 27.8 | 12.9 |
| Cc1[nH]c(/C=C2\C(=O)Nc3ccc([S+](=O)([O-])N(C)c4cccc(Cl)c4)cc32)c(C)c1C(=O)N1CCN(C)CC1 | 114 | 131 | 123 | 103 | 119 | 99.2 | 115 | 120 | 109 | 103 | 10.1 |  |  |  |  |  |  |  |  |  |  |  |  |  |  |  |  |  |  |  |  |  |  |
| Fc1cc(-c2cccc3ncc(-c4cnn(C5CCNCC5)c4)nc23)cc(F)c1CN1CCOCC1 | 111 | 122 | 130 | 132 | 108 | 124 | 135 | 103 | 42.6 | 21.5 | 16.1 | 109 | 107 | 119 | 102 | 111 | 116 | 114 | 105 | 84 | 29.4 | 18.3 | 128 | 115 | 124 | 122 | 125 | 103 | 119 | 103 | 95.2 | 54.9 | 25.9 |
| Cl.c1cnc2cc3c(cc2n1)C1CNCC3C1 | 107 | 109 | 110 | 103 | 129 | 126 | 135 | 124 | 124 | 122 | 92 | 101 | 105 | 113 | 107 | 112 | 110 | 118 | 104 | 111 | 110 | 79.4 | 99.3 | 98.2 | 105 | 114 | 107 | 121 | 116 | 109 | 103 | 108 | 62.8 |
| C#Cc1cccc(Nc2ncnc3cc(OCCOC)c(OCCO)cc23)c1 | 135 | 110 | 119 | 119 | 125 | 116 | 100 | 68.7 | 63.3 | 69.9 | 28.1 | 118 | 105 | 110 | 94.6 | 118 | 104 | 112 | 94.2 | 103 | 93.2 | 33.9 | 118 | 123 | 98.2 | 112 | 104 | 112 | 118 | 92.2 | 104 | 94.7 | 41.7 |
| C[C@@H](c1ncncc1F)[C@](O)(Cn1cncn1)c1ccc(F)cc1F | 117 | 121 | 110 | 110 | 125 | 114 | 120 | 107 | 111 | 108 | 93.3 | 111 | 111 | 114 | 103 | 108 | 107 | 126 | 108 | 107 | 91.1 | 93.8 | 111 | 114 | 128 | 115 | 111 | 97.9 | 108 | 116 | 99.8 | 111 | 97.4 |
| O=[N+]([O-])c1cn2c(n1)OC[C@@H](OCc1ccc(OC(F)(F)F)cc1)C2 |  |  |  |  |  |  |  |  |  |  |  |  |  |  |  |  |  |  |  |  |  |  | 120 | 141 | 115 | 126 | 145 | 142 | 148 | 118 | 138 | 139 | 120 |
| C1Cc2[nH]nc(-c3nn[nH]n3)c2C1 | 128 | 120 | 119 | 139 | 149 | 145 | 131 | 143 | 140 | 145 | 142 |  |  |  |  |  |  |  |  |  |  |  | 122 | 124 | 131 | 139 | 135 | 144 | 137 | 147 | 131 | 145 | 149 |
| CCOC(=O)Nc1ccc(NCc2ccc(F)cc2)cc1N | 112 | 120 | 126 | 129 | 116 | 110 | 121 | 107 | 99.1 | 65.1 | 31.5 | 107 | 112 | 117 | 116 | 117 | 118 | 112 | 113 | 105 | 94.3 | 24.6 | 115 | 133 | 119 | 119 | 115 | 123 | 110 | 107 | 107 | 89.8 | 33.9 |
| Clc1ccc(C2(c3ccc(-c4cn[nH]c4)cc3)CCNCC2)cc1 | 80.5 | 101 | 111 | 100 | 100 | 98.2 | 96.6 | 91.9 | 69.9 | 63.3 | 62.7 | 80.2 | 81.3 | 86.4 | 83.8 | 90.8 | 89.2 | 98.9 | 77.9 | 77.6 | 65.6 | 55.3 | 86.7 | 99.2 | 83.4 | 93.5 | 99 | 103 | 81.4 | 72.2 | 70.3 | 59.9 | 53.7 |
| COc1ccc(/C=C\c2cc(OC)c(OC)c(OC)c2)cc1O | 43.4 | 51.5 | 49 | 49 | 44.6 | 47 | 41.7 | 36.6 | 36.1 | 25.3 | 23.2 | 32.1 | 33.7 | 31.2 | 31.2 | 31.7 | 26.6 | 22.5 | 22.1 | 23.3 | 19 | 14.7 | 37.3 | 35.2 | 40.9 | 38.7 | 34.9 | 33.4 | 31.8 | 30.7 | 27.8 | 23.4 | 20 |
